According to patent US20050053680A1, “Pediculicidal compound” (priority 2002, published 2005):
Where two headings read alike, the source gives them in different places.

Assays:
Louse eggs = details: for inhibition of embryo development before eyespot stage (in words): Table 10, Undeveloped; for Number of eggs Half-hatched / Number of eggs Undeveloped: Laurex CS 4.00%, GMS N/SE 2.00%; for Undeveloped % (in brackets, Abbott's correction): corrected; for Undeveloped %: uncorrected; for activity against louse eggs (in words): after correction for hatching failure in the Control Group
[1] = tested on: Human lice, Pediculus humanus; details: in vivo
[2] = Table 10, H2O vehicle, Laurex CS 4.00% (163 eggs), GMS N/SE 2.00% (176 eggs)
[3] = Table 10, IPA/water vehicle, Laurex CS 4.00% (102 eggs), GMS N/SE 2.00% (145 eggs)
[4] = Table 10, IPA/water vehicle, IPA/H2O mix 40.5

CCCCCCCCCCCCCCCCCC(=O)OCC(O)CO (stereo not drawn) [GMS N/SE, Glyceryl stearate]
inhibition of embryo development before eyespot stage (in words) (Louse eggs): activity to inhibit the development of the embryo | Number of eggs Hatched (Louse eggs; [2]): 135 | Number of eggs Half-hatched (Louse eggs; Table 10, H2O vehicle): 7 | Number of eggs Undeveloped (Louse eggs; Table 10, H2O vehicle): 27 | Undeveloped % (in brackets, Abbott's correction) (Louse eggs; Table 10, H2O vehicle): 0% | Undeveloped % (Louse eggs; Table 10, H2O vehicle): 15.3% | Number of eggs Hatched (Louse eggs; [3]): 45 | Number of eggs Half-hatched (Louse eggs; Table 10, IPA/water vehicle): 1 | Number of eggs Undeveloped (Louse eggs; Table 10, IPA/water vehicle): 93 | Undeveloped % (in brackets, Abbott's correction) (Louse eggs; Table 10, IPA/water vehicle): 39.7% | Undeveloped % (Louse eggs; [4]): 64.1% | activity against louse eggs (in words) (Louse eggs; Table 10): activity could be detected | Number of lice Moribund [1]: 0 | pediculicidal activity (in words) [1]: showed any activity

Liquid Paraffin [reference compound]
Mortality % (Killed) [1]: 100 (100) % | Mortality % Total [1]: 100 (100) %

CCCCCCCCCCCCCCCCCCO [Laurex CS, Cetearyl alcohol]
inhibition of embryo development before eyespot stage (in words) (Louse eggs): activity to inhibit the development of the embryo | Number of eggs Hatched (Louse eggs; [2]): 117 | Number of eggs Half-hatched (Louse eggs; Table 10, H2O vehicle): 1 | Number of eggs Undeveloped (Louse eggs; Table 10, H2O vehicle): 34 | Undeveloped % (in brackets, Abbott's correction) (Louse eggs; Table 10, H2O vehicle): 0% | Undeveloped % (Louse eggs; Table 10, H2O vehicle): 20.9% | Number of eggs Hatched (Louse eggs; [3]): 19 | Number of eggs Half-hatched (Louse eggs; Table 10, IPA/water vehicle): 1 | Number of eggs Undeveloped (Louse eggs; Table 10, IPA/water vehicle): 70 | Undeveloped % (in brackets, Abbott's correction) (Louse eggs; Table 10, IPA/water vehicle): 47.2% | Undeveloped % (Louse eggs; [4]): 68.6% | kill of louse eggs (Louse eggs; after correction for Control Group, Table 10): > 50% | activity against louse eggs (in words) (Louse eggs; Table 10): activity could be detected | pediculicidal activity (in words) [1]: killed all lice and prevented them from laying any eggs | pediculicidal activity at different time exposures (in words) [1]: some activity can be demonstrated from 30 minutes application

Urtica Dioica (Nettle) extract [Nettle Extract]
Mortality % (Killed) [1]: 24 (14) % | Mortality % Total [1]: 24 (14) %

Thymus Vulgaris (Thyme) extract [Thyme Extract]
Mortality % (Killed) [1]: 21 (5) % | Mortality % Total [1]: 21 (5) %

CCCCCCCCCCCCCCCC[N+](C)(C)C.[Cl-] [Dehyquart ACA, Cetrimonium chloride]
Mortality % (Killed) [1]: 20 (10) % | Mortality % Total [1]: 20 (10) % | Number of eggs [1]: 34 | Number of lice Killed [1]: 2 | Number of lice Moribund [1]: 2

Methylparaben & Propylparaben & Ethylparaben [Nipasept]
Mortality % (Killed) [1]: 20 (15) % | Mortality % Total [1]: 20 (15) %
